Assay results as given in patent publication US20130344026A1, “Dimeric Smac Mimetics” (priority 2009, published 2013).

tested on: HCC461; test: cell viability assay in HCC461, compound alone; assay type: cell-based; conditions: HCC461, HCC461; Tables 6-9; read-out: IC50 (μM) in cell viability assay in HCC461

IC50 | SMILES
> 30 µM | CN[C@@H](C)C(=O)N[C@@H](CCCCNC(=O)c1cccc(C(=O)NCCCC[C@H](NC(=O)[C@H](C)NC)C(=O)N2CCCC[C@H]2C(=O)N[C@@H]2CCCc3ccccc32)c1)C(=O)N1CCCC[C@H]1C(=O)N[C@@H]1CCCc2ccccc21 [Compound 142]
0.027 µM | CN[C@@H](C)C(=O)N[C@@H](CCCCNC(=O)c1cccc(C(=O)N[C@H]2C[C@@H](C(=O)N[C@@H]3CCCc4ccccc43)N(C(=O)[C@@H](NC(=O)[C@H](C)NC)C(C)(C)C)C2)c1)C(=O)N1CCCC[C@H]1C(=O)N[C@@H]1CCCc2ccccc21 [Compound 143]
0.043 µM | CN[C@@H](C)C(=O)N[C@@H](CCCCNC(=O)c1cccc(C(=O)N[C@H]2C[C@@H](C(=O)N[C@@H]3CCCc4ccccc43)N(C(=O)[C@@H](NC(=O)[C@H](C)NC)C(C)(C)C)C2)c1)C(=O)N1CC=C[C@H]1C(=O)N[C@@H]1CCCc2ccccc21 [Compound 144]
> 30 µM | CN[C@@H](C)C(=O)N[C@H](C(=O)N[C@H]1C[C@@H](C(=O)N[C@@H]2CCCc3ccccc32)N(C(=O)[C@@H](NC(=O)[C@H](C)NC)C(C)(C)C)C1)C(C)(C)C [Compound 145]
> 30 µM | CN[C@@H](C)C(=O)N[C@@H](C)C(=O)N[C@H]1C[C@@H](C(=O)N[C@@H]2CCCc3ccccc32)N(C(=O)[C@@H](NC(=O)[C@H](C)NC)C(C)(C)C)C1 [Compound 146]
0.185 µM | CN[C@@H](C)C(=O)N[C@@H](CCC(=O)O)C(=O)N1C[C@@H](NC(=O)c2cccc(C(=O)N[C@H]3C[C@@H](C(=O)N[C@@H]4CCCc5ccccc54)N(C(=O)[C@@H](NC(=O)[C@H](C)NC)C(C)(C)C)C3)c2)CC1C(=O)N[C@H](C)c1ccccc1 (stereo partly drawn) [Compound 147]
0.622 µM | CN[C@@H](C)C(=O)N[C@@H](CCC(=O)O)C(=O)N1C[C@@H](NC(=O)c2cccc(C(=O)N[C@H]3C[C@@H](C(=O)N[C@H](C)c4ccccc4)N(C(=O)[C@@H](NC(=O)[C@H](C)NC)C(C)(C)C)C3)c2)CC1C(=O)N[C@H](C)c1ccccc1 (stereo partly drawn) [Compound 148]
0.072 µM | CN[C@@H](C)C(=O)N[C@@H](CCC(=O)OC)C(=O)N1C[C@@H](NC(=O)c2cccc(C(=O)N[C@H]3C[C@@H](C(=O)N[C@@H]4CCCc5ccccc54)N(C(=O)[C@@H](NC(=O)[C@H](C)NC)C(C)(C)C)C3)c2)CC1C(=O)N[C@H](C)c1ccccc1 (stereo partly drawn) [Compound 149]
0.121 µM | CN[C@@H](C)C(=O)N[C@@H](CCC(=O)OC)C(=O)N1C[C@@H](NC(=O)c2cccc(C(=O)N[C@H]3C[C@@H](C(=O)N[C@H](C)c4ccccc4)N(C(=O)[C@@H](NC(=O)[C@H](C)NC)C(C)(C)C)C3)c2)CC1C(=O)N[C@H](C)c1ccccc1 (stereo partly drawn) [Compound 150]
27.6 µM | CN[C@@H](C)C(=O)NC(C(=O)N1C[C@@H](NC(=O)c2cccc(C(=O)N[C@H]3C[C@@H](C(=O)N[C@H](C)c4ccccc4)N(C(=O)[C@H](CCC(=O)OC)NC(=O)[C@@H](N)CO)C3)c2)CC1C(=O)N[C@@H]1CCCc2ccccc21)C(C)(C)C (stereo partly drawn) [Compound 153]

Second part, the compound before the results:

SMILES | IC50
CN[C@@H](C)C(=O)N[C@H](C(=O)N1CC[C@H](NC(=O)c2cccc(C(=O)N[C@H]3C[C@@H](C(=O)N[C@@H]4CCCc5ccccc54)N(C(=O)[C@@H](NC(=O)[C@H](C)NC)C(C)(C)C)C3)c2)C1)C(C)(C)C [Compound 131] | 0.642 µM
CN[C@@H](C)C(=O)N[C@H](C(=O)N1C[C@@H](NC(=O)c2cccc(C(=O)N[C@H]3C[C@@H](C(=O)N[C@H](C)C(C)C)N(C(=O)[C@@H](NC(=O)[C@H](C)NC)C(C)(C)C)C3)c2)C[C@H]1C(=O)N[C@@H]1CCCc2ccccc21)C(C)(C)C [Compound 132] | 0.017 µM
CN[C@@H](C)C(=O)N[C@H](C(=O)N1C[C@@H](NC(=O)c2cccc(C(=O)N[C@H]3C[C@@H](C(=O)N[C@@H]4CCCc5ccccc54)N(C(=O)[C@@H](NC(=O)[C@H](C)NC)C(C)(C)C)C3)c2)C[C@H]1C(=O)N[C@H](C)C(C)C)C(C)C [Compound 133] | 0.016 µM
CN[C@@H](C)C(=O)N[C@@H](CCCCNC(=O)c1cccc(C(=O)N[C@H]2C[C@@H](C(=O)N[C@@H]3CCCc4ccccc43)N(C(=O)[C@@H](NC(=O)[C@H](C)NC)C(C)(C)C)C2)c1)C(=O)N1CCC[C@H]1C(=O)N[C@@H]1CCCc2ccccc21 [Compound 134] | 0.058 µM
CN[C@@H](C)C(=O)N[C@@H](CCCCNC(=O)c1cccc(C(=O)N[C@H]2CCN(C(=O)[C@@H](NC(=O)[C@H](C)NC)C(C)(C)C)C2)c1)C(=O)N1CCC[C@H]1C(=O)N[C@@H]1CCCc2ccccc21 [Compound 135] | 12.1 µM
CN[C@@H](C)C(=O)N[C@@H](C(C)C)C(C)N[C@@H](CNC(=O)c1cccc(C(=O)N[C@H]2C[C@@H](C(=O)N[C@@H]3CCCc4ccccc43)N(C(=O)[C@@H](NC(=O)[C@H](C)NC)C(C)(C)C)C2)c1)C(=O)N[C@H](C)C(C)C (stereo partly drawn) [Compound 136] | > 30 µM
CC[C@H](NC(=O)[C@H](C)NC)C(C)N[C@@H](CNC(=O)c1cccc(C(=O)N[C@H]2C[C@@H](C(=O)N[C@@H]3CCCc4ccccc43)N(C(=O)[C@@H](NC(=O)[C@H](C)NC)C(C)(C)C)C2)c1)C(=O)N[C@H](C)C(C)C (stereo partly drawn) [Compound 137] | 6.97 µM
CN[C@@H](C)C(=O)N[C@H](C(=O)N1C[C@@H](NC(=O)c2cccc(C(=O)NCC[C@@H](NC(=O)[C@H](NC(=O)[C@@H](C)NC)C(C)C)C(=O)N[C@@H](C)C(C)C)c2)C[C@H]1C(=O)N[C@@H]1CCCc2ccccc21)C(C)(C)C [Compound 138] | > 30 µM
CN[C@@H](C)C(=O)N[C@H](C(=O)N1C[C@@H](NC(=O)c2cccc(C(=O)NCC[C@@H](NC(=O)[C@H](NC(=O)[C@H](N)CO)C(C)C)C(=O)N[C@@H](C)C(C)C)c2)C[C@H]1C(=O)N[C@@H]1CCCc2ccccc21)C(C)(C)C [Compound 139] | 0.849 µM
CCC[C@H](NC(=O)[C@H](C)NC)C(=O)N1C[C@@H](NC(=O)c2cccc(C(=O)N[C@H]3C[C@@H](C(=O)N[C@@H]4CCCc5ccccc54)N(C(=O)[C@@H](NC(=O)[C@H](C)NC)C(C)(C)C)C3)c2)C[C@H]1C(=O)N[C@H](C)C(C)C [Compound 140] | 0.28 µM
CCC[C@H](NC(=O)[C@H](C)NC)C(=O)N1C[C@@H](NC(=O)c2cccc(C(=O)N[C@H]3C[C@@H](C(=O)N[C@@H]4CCCc5ccccc54)N(C(=O)[C@@H](NC(=O)[C@H](C)NC)C(C)(C)C)C3)c2)C[C@H]1C(=O)N1CCCCC1 [Compound 141] | 0.109 µM
CN[C@@H](C)C(=O)NC(C(=O)N1C[C@@H](NC(=O)c2cccc(C(=O)NCCCC[C@H](NC(=O)[C@H](C)NC)C(=O)NC(C(=O)N3CCCCC3)C(C)(C)C)c2)C[C@H]1C(=O)N[C@@H]1CCCc2ccccc21)C(C)(C)C (stereo partly drawn) [Compound 151] | 0.297 µM
CN[C@@H](C)C(=O)NC(C(=O)N1C[C@@H](NC(=O)c2cccc(C(=O)NCCCC[C@H](NC(=O)C(NC(C)[C@H](C)NC)C(C)(C)C)C(=O)N3CCCCC3)c2)C[C@H]1C(=O)N[C@@H]1CCCc2ccccc21)C(C)(C)C (stereo partly drawn) [Compound 152] | 0.447 µM

same assay, conditions: HCC461; Tables 6-9; read-out: IC50 (μM) in cell viability assay in HCC461

SMILES | IC50
C[C@H](NC(=O)OCc1ccc([N+](=O)[O-])cc1)C(=O)NC(C(=O)N1C[C@@H](NC(=O)c2cc(C(=O)N[C@H]3C[C@@H](C(=O)N[C@@H]4CCCc5ccccc54)N(C(=O)[C@@H](NC(=O)[C@H](C)NC(=O)OCc4ccc([N+](=O)[O-])cc4)C(C)(C)C)C3)cc(S(=O)(=O)O)c2)CC1C(=O)N[C@@H]1CCCc2ccccc21)C(C)(C)C (stereo partly drawn) [Compound 112] | > 30 µM
